Like-named read-outs stand apart in the source and are kept apart here.
Key:
[1] = biological target: CDK1/cyclin B; assay: CDK1/cyclin B kinase assay (histone H1, P81 phosphocellulose); format: biochemical, starfish (Marthasterias glacialis); conditions: 15 μM ATP; cell '− (x)' = no inhibitory activity detected, x = highest concentration tested
Procedure: ATP (3,000 Ci/mmol; 1 mCi/ml) in a final volume of 30 μl. […] The wet filters were counted in the presence of 1 ml ACS (Amersham) scintillation fluid.

[2] = biological target: GSK-3α/ß; assay: GSK-3α/β kinase assay (GS-1 substrate); format: biochemical, porcine; conditions: 15 μM ATP; cell '− (x)' = no inhibitory activity detected, x = highest concentration tested
Text: GSK-3 α/β was purified from porcine brain by affinity chromatography on immobilized axin [39].

[3] = biological target: PIM 1 (Homo sapiens, UniProt P11309); assay: PIM1 kinase assay (histone H1); format: biochemical; conditions: 15 μM ATP; cell '− (x)' = no inhibitory activity detected, x = highest concentration tested; read-out: IC50 PIM 1
[4] = biological target: CK1; assay: CK1 kinase assay (CKS peptide); format: biochemical, porcine
Procedure: CK1 was purified from porcine brain by affinity chromatography on immobilized axin fragment. The mixture of native CK1 isoforms (essentially CK1δ and CK1ɛ) was assayed in three-fold diluted buffer C, using 25 μM CKS peptide, a CK1 selective substrate (RRKHAAIGpSAYSITA, synthesized by Millegen (Labège, France). Assays were performed for 30 min. at 30°C, as described for GSK-3.

[5] = tested on: human neuroblastoma SH-SY5Y cells; assay: SH-SY5Y cell survival, MTS reduction assay; format: cell-based; conditions: MTS assay, dose-response after 24 h and 48 h exposure, cell '− (x)' = no activity, x = highest concentration tested, read-out: IC50 SH-SY5Y cell survival
Procedure: We next tested the effects of each lamellarin, at an initial 10 μM concentration, on the survival of the neuroblastoma SH-SY5Y cell line after 48 h exposure (Table 2). Cell survival was estimated by the MTS reduction assay.
SH-SY5Y human neuroblastoma cells were grown in DMEM supplemented with 2mM L-glutamine (Invitrogen, Cergy Pontoise, France), plus antibiotics (penicillin-streptomycin) and a 10% volume of fetal calf serum (FCS) (Invitrogen). Cell viability was determined by means of the MTS (3- (4,5-dimethylthiazol-2-yl)-5- (3-carboxymethoxyphenyl)-2- (4-sulfophenyl)-2H -tetrazolium) reduction method as previously described. Cell death was (also) assayed by LDH release. Lactate dehydrogenase is a stable cytosolic enzyme that is released upon cell lysis. SH-SY5Y cells were also subjected to caspase activity assays. These are based on cleavage of a synthetic caspase substrate DEVD (MP Biomedicals, 199423), a subtrate of active caspase 3/6/7. The assay was carried out according to manufacturer’s instructions.

[6] = biological target: CDK5/p25 (Homo sapiens, UniProt Q00535); assay: CDK5/p25 kinase assay (histone H1)
Procedure: (§1) Blank values were subtracted and activities calculated as pmoles of phosphate incorporated during a 30 min. incubation. The activities were expressed in % of the maximal activity, i.e. in the absence of inhibitors. Controls were performed with appropriate dilutions of dimethylsulfoxide. Unless otherwise stated, the P81 phosphocellulose assay was used.
Its activity was assayed with histone H1 in buffer C as described for CDK1/cyclin B.

[7] = biological target: DYRK1A (Rattus norvegicus, UniProt Q63470); assay: DYRK1A kinase assay (myelin basic protein)
Procedure: as §1
DYRK1A was expressed as a GST fusion protein in E. coli (vector kindly provided by Dr. W. Becker, Institute for Pharmacology and Toxicology, Aachen, Germany) and affinity purified on glutathione-agarose. […] ATP in a final volume of 30 μl. After 30 min incubation at 30°C, 25 μl aliquots of supernatant were treated as described above.

[8] = tested on: HeLa cells; set-up: method as in PMID 11975488; conditions: provided for comparison, ref [18]; cited from earlier work
[9] = 15 μM ATP, cell '− (x)' = no inhibitory activity detected, x = highest concentration tested

Sequence of PIM 1 (P11309 whole entry, species assumed): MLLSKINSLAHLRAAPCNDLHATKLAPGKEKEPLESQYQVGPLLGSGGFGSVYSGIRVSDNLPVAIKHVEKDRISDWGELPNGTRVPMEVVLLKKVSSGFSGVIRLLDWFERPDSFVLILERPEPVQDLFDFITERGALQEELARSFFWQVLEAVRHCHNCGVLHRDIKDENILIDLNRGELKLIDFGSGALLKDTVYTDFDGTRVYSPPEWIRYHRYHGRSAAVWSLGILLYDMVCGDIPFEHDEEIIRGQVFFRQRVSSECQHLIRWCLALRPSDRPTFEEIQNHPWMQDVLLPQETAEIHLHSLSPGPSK
Sequence of CDK5/p25 (Q00535 whole entry): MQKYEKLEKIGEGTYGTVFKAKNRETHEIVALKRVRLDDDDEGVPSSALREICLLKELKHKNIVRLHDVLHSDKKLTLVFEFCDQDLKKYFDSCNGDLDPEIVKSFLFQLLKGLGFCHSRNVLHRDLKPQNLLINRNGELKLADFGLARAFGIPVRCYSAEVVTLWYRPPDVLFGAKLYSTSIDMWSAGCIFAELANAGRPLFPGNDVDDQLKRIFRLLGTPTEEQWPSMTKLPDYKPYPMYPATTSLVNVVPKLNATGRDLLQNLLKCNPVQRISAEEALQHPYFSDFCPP
Sequence of CDK5/p25 (Q15078 99-307 partner limits assumed): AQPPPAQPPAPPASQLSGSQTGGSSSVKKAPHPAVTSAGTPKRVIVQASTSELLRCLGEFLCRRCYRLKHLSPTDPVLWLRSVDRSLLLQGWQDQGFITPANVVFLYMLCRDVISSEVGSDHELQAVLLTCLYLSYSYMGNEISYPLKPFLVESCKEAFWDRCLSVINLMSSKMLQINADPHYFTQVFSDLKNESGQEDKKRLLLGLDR

| Structure (SMILES) | IC50 [1] | IC50 [2] | IC50 [3] | IC50 [4, 9] | IC50 [5] | IC50 [6] | IC50 [7] | IC50 [8] | IC50 [4] |
| --- | --- | --- | --- | --- | --- | --- | --- | --- | --- |
| COc1cc(-c2c3c4cc(OC)c(O)cc4oc(=O)c3n3ccc4cc(OC)c(OC)cc4c23)ccc1O [Compound 2, lamellarin α] | 8 µM | 1.4 µM | 0.59 µM | 7.9 µM | > 10 µM | > 10 µM | 5 µM | – | – |
| COc1ccc(-c2c3c4ccccc4oc(=O)c3n3ccc4cc(OC)c(OC)cc4c23)cc1OC [Compound 16, lamellarin 11] | > 10 µM | > 10 µM | > 10 µM | > 10 µM | > 10 µM | > 10 µM | > 10 µM | 5.7 µM | – |
| O=c1oc2ccccc2c2c(-c3ccc(O)c(O)c3)c3c4cc(O)c(O)cc4ccn3c12 [Compound 15, lamellarin 9] | > 10 µM | > 10 µM | > 10 µM | > 10 µM | > 10 µM | > 10 µM | > 10 µM | 1.1 µM | – |
| COc1cc(-c2c3n(c4c(=O)oc5cc(O)c(OC)cc5c24)CCc2c-3cc(OC)c(OC)c2O)ccc1O [Compound 22, lamellarin K] | > 10 µM | > 10 µM | 0.6 µM | 6 µM | > 30 µM | > 10 µM | > 10 µM | – | – |
| COc1ccc(-c2c3n(c4c(=O)oc5cc(O)c(OC)cc5c24)CCc2cc(O)c(OC)cc2-3)cc1O [Compound 7, lamellarin L] | 0.38 µM | 0.041 µM | 0.25 µM | > 10 µM | 0.7 µM | 0.1 µM | 0.14 µM | – | – |
| O=c1oc2cc(O)c(O)cc2c2c(-c3ccc(O)c(O)c3)c3n(c12)CCc1cc(O)c(O)cc1-3 [Compound 5, di-H-lamellarin H] | > 10 µM | 0.67 µM | > 10 µM | 5.2 µM | 2.55 µM | > 10 µM | > 10 µM | – | – |
| COc1cc(-c2c3n(c4c(=O)oc5cc(O)c(OC)cc5c24)CCc2cc(O)c(OC)cc2-3)ccc1O [Compound 3, di-H-lamellarin D] | 1.85 µM | 0.9 µM | 0.2 µM | 5.9 µM | 0.41 µM | 0.11 µM | 0.5 µM | – | – |
| COc1cc(-c2c3c4ccccc4oc(=O)c3n3ccc4cc(O)c(OC)cc4c23)ccc1O [Compound 14, lamellarin 8] | 5 µM | 2.2 µM | 0.7 µM | > 10 µM | 2.65 µM | 0.9 µM | 1 µM | 4 µM | – |
| O=c1oc2cc(O)c(O)cc2c2c(-c3ccc(O)c(O)c3)c3c4cc(O)c(O)cc4ccn3c12 [Compound 4, lamellarin H] | > 10 µM | 9.5 µM | > 10 µM | 5.3 µM | 0.45 µM | > 10 µM | > 10 µM | > 100 µM | – |
| COc1ccc(-c2c3c4cc5c(cc4oc(=O)c3n3ccc4cc(OC)c(OC)cc4c23)OCO5)cc1OC [Compound 17, lamellarin 12] | > 10 µM | > 10 µM | > 10 µM | > 10 µM | > 10 µM | > 10 µM | > 10 µM | > 100 µM | – |
| COc1cc2c(cc1O)oc(=O)c1c2c(-c2ccc(OC)c(OC)c2)c2c3cc(OC)c(OC)cc3ccn21 [Compound 11, lamellarin 5] | > 10 µM | > 10 µM | 2 µM | > 10 µM | 8 µM | > 10 µM | > 10 µM | 2.5 µM | – |
| COc1cc(-c2c3c4ccc(O)cc4oc(=O)c3n3ccc4cc(O)c(OC)cc4c23)ccc1O [Compound 9, lamellarin 3] | 0.53 µM | 0.58 µM | 0.15 µM | 0.41 µM | 0.056 µM | 0.6 µM | 0.06 µM | 0.04 µM | – |
| COc1cc(-c2c3c4cc(OC)c(O)cc4oc(=O)c3n3ccc4cc(O)c(OC)cc4c23)ccc1O [Compound 1, lamellarin D] | 0.5 µM | 0.3 µM | 0.1 µM | – | 0.019 µM | 0.55 µM | 0.45 µM | 0.011 µM | 13 µM |
| COc1cc2c(cc1O)oc(=O)c1c2c(-c2ccc(O)cc2)c2c3cc(OC)c(O)cc3ccn21 [Compound 12, lamellarin 6] | 0.1 µM | 0.13 µM | 0.33 µM | 0.8 µM | 0.11 µM | 0.03 µM | 0.09 µM | 0.04 µM | – |
| COc1cccc(-c2c3c4cc(OC)c(O)cc4oc(=O)c3n3ccc4cc(O)c(OC)cc4c23)c1 [Compound 13, lamellarin 7] | 4.3 µM | 2.1 µM | > 10 µM | > 10 µM | 0.14 µM | 2.1 µM | > 10 µM | 0.07 µM | – |
| COc1ccc2oc(=O)c3c(c(-c4ccc(O)c(OC)c4)c4c5cc(OC)c(O)cc5ccn43)c2c1 [Compound 10, lamellarin 4] | 2 µM | 0.05 µM | 0.05 µM | 1.3 µM | 0.79 µM | 0.6 µM | 0.08 µM | 0.85 µM | – |

Reference: publication PMC2630805, “Anticancer Alkaloid Lamellarins Inhibit Protein Kinases” (Marine Drugs, 2008)
